Data from the supplement of paper PMC8149375.

Assays:
Settings in all cases: treatment: drug alone; 5 days
769-P [1] = assay: GI50, drug alone; higher = less potent
Experimental: (§1)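 Primary HTS: 8 RCC cell lines treated with 8 doses (up to 10 uM) of each library drug alone for 5 days; viability read by CellTiter-Glo and normalised to DMSO. GI50 was fitted with XLfit (4-parameter), AUC is the area under the dose-response curve, and minimum viability is the lowest fraction of DMSO viability across doses.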

786-O [2] = assay: GI50, drug alone; higher = less potent
Experimental: as §1

A498 [3] = assay: GI50, drug alone; higher = less potent
Experimental: as §1

ACHN [4] = assay: GI50, drug alone; higher = less potent
Experimental: as §1

CAKI-1 [5] = assay: GI50, drug alone; higher = less potent
Experimental: as §1

SN12C [6] = assay: GI50, drug alone; higher = less potent
Experimental: as §1

TK-10 [7] = assay: GI50, drug alone; higher = less potent
Experimental: as §1

UO-31 [8] = assay: GI50, drug alone; higher = less potent
Experimental: as §1

769-P [9] = assay: minimum viability across doses, drug alone, relative to DMSO (fraction); higher = less growth inhibition
Experimental: as §1

786-O [10] = assay: as above
Experimental: as §1

A498 [11] = assay: as above
Experimental: as §1

ACHN [12] = assay: as above
Experimental: as §1

CAKI-1 [13] = assay: as above
Experimental: as §1

SN12C [14] = assay: as above
Experimental: as §1

TK-10 [15] = assay: as above
Experimental: as §1

UO-31 [16] = assay: as above
Experimental: as §1

769-P [17] = assay: AUC of dose-response viability curve, drug alone (arbitrary (AUC of normalised viability)); higher = less growth inhibition
Experimental: as §1

786-O [18] = assay: as above
Experimental: as §1

A498 [19] = assay: as above
Experimental: as §1

ACHN [20] = assay: as above
Experimental: as §1

CAKI-1 [21] = assay: as above
Experimental: as §1

SN12C [22] = assay: as above
Experimental: as §1

TK-10 [23] = assay: as above
Experimental: as §1

UO-31 [24] = assay: as above
Experimental: as §1

GI50, drug alone (786-O [2]) [nM] | GI50, drug alone (ACHN [4]) [nM] | Compound | GI50, drug alone (769-P [1]) [nM] | GI50, drug alone (A498 [3]) [nM] | GI50, drug alone (CAKI-1 [5]) [nM] | GI50, drug alone (SN12C [6]) [nM] | GI50, drug alone (TK-10 [7]) [nM] | GI50, drug alone (UO-31 [8]) [nM] | minimum viability across doses (769-P [9]) | minimum viability across doses (786-O [10]) | minimum viability across doses (A498 [11]) | minimum viability across doses (ACHN [12]) | minimum viability across doses (CAKI-1 [13]) | minimum viability across doses (SN12C [14]) | minimum viability across doses (TK-10 [15]) | minimum viability across doses (UO-31 [16]) | AUC of dose-response viability curve (769-P [17]) | AUC of dose-response viability curve (786-O [18]) | AUC of dose-response viability curve (A498 [19]) | AUC of dose-response viability curve (ACHN [20]) | AUC of dose-response viability curve (CAKI-1 [21]) | AUC of dose-response viability curve (SN12C [22]) | AUC of dose-response viability curve (TK-10 [23]) | AUC of dose-response viability curve (UO-31 [24])
> 10000 | > 10000 | CNC(=O)c1ccc(-c2cnc3ncc(Cc4ccc5ncccc5c4)n3n2)cc1F | > 10000 | > 10000 | > 10000 | > 10000 | > 10000 | > 10000 | 0.916 | 0.652 | 0.984 | 0.842 | 0.802 | 0.913 | 0.843 | 1.21 | 3.5 | 2.88 | 4.54 | 3.21 | 3.25 | 3.41 | 3.14 | 5.21
8260 | 2010 | c1ccc2c(-c3cnn4cc(-c5ccc(N6CCNCC6)cc5)cnc34)ccnc2c1 | 2600 | 8210 | 1630 | 2800 | 7730 | 7440 | 0.00246 | 0.0032 | 0.00414 | 0.00139 | 0.00218 | 0.00261 | 0.00522 | 0.00507 | 2.86 | 3.55 | 3.76 | 2.68 | 2.96 | 2.88 | 2.64 | 6.11
1320 | 1140 | COc1cc2c(Oc3ccc(NC(=O)C4(C(=O)Nc5ccc(F)cc5)CC4)cc3F)ccnc2cc1OCCCN1CCOCC1 | 2910 | 3260 | 575 | 1200 | 1070 | 2910 | 0.0122 | 0.00765 | 0.0481 | 0.00485 | 0.00629 | 0.0104 | 0.00697 | 0.0119 | 2.75 | 2.39 | 3.15 | 2.6 | 2.12 | 2.34 | 2.37 | 3.04
465 | 2400 | Nc1nc(Nc2ccc(S(N)(=O)=O)cc2)nn1C(=O)c1c(F)cccc1F | > 10000 | > 10000 | 4580 | 4890 | > 10000 | 2800 | 0.0485 | 0.00276 | 0.559 | 0.0118 | 0.0615 | 0.203 | 0.573 | 0.00913 | 3.08 | 1.8 | 3.39 | 2.85 | 3.13 | 2.99 | 2.77 | 3.19
450 | 1090 | O=C1NC(=O)/C(=C/c2ccc3nccc(-c4ccncc4)c3c2)S1 | 6260 | 4570 | 412 | 1160 | 2290 | 498 | 0.43 | 0.216 | 0.341 | 0.219 | 0.125 | 0.26 | 0.467 | 0.0334 | 2.87 | 2.19 | 2.97 | 2.48 | 2.21 | 2.4 | 2.63 | 2.45
29.6 | 63.1 | COc1ncc(-c2ccc3nccc(-c4ccnnc4)c3c2)cc1NS(=O)(=O)c1ccc(F)cc1F | 84.2 | 242 | 28.9 | 76.6 | 36.5 | 92 | 0.0336 | 0.00239 | 0.283 | 0.0976 | 0.0314 | 0.0986 | 0.0455 | 0.00994 | 1.4 | 1.11 | 2.32 | 1.46 | 1.08 | 1.49 | 1.23 | 1.49
58.7 | 215 | CC(=O)Nc1cccc(-n2c(=O)n(C3CC3)c(=O)c3c(Nc4ccc(I)cc4F)n(C)c(=O)c(C)c32)c1 | 567 | > 10000 | 228 | 1620 | 118 | 4610 | 0.257 | 0.332 | 0.735 | 0.312 | 0.201 | 0.405 | 0.289 | 0.382 | 2.26 | 1.76 | 3.29 | 1.81 | 1.93 | 2.39 | 1.67 | 3.28
396 | 9280 | CCn1c(-c2nonc2N)nc2c(C#CC(C)(C)O)ncc(OC[C@H]3CCCNC3)c21 | > 10000 | > 10000 | 5920 | > 10000 | 4510 | > 10000 | 0.839 | 0.288 | 0.979 | 0.434 | 0.432 | 0.693 | 0.469 | 0.769 | 3.15 | 1.97 | 3.82 | 3.03 | 2.74 | 3.06 | 2.59 | 3.19

Compound | GI50, drug alone (786-O [2]) [nM] | GI50, drug alone (ACHN [4]) [nM] | GI50, drug alone (769-P [1]) [nM] | GI50, drug alone (A498 [3]) [nM] | GI50, drug alone (CAKI-1 [5]) [nM] | GI50, drug alone (SN12C [6]) [nM] | GI50, drug alone (TK-10 [7]) [nM] | GI50, drug alone (UO-31 [8]) [nM] | minimum viability across doses (769-P [9]) | minimum viability across doses (786-O [10]) | minimum viability across doses (A498 [11]) | minimum viability across doses (ACHN [12]) | minimum viability across doses (CAKI-1 [13]) | minimum viability across doses (SN12C [14]) | minimum viability across doses (TK-10 [15]) | minimum viability across doses (UO-31 [16]) | AUC of dose-response viability curve (769-P [17]) | AUC of dose-response viability curve (786-O [18]) | AUC of dose-response viability curve (A498 [19]) | AUC of dose-response viability curve (ACHN [20]) | AUC of dose-response viability curve (CAKI-1 [21]) | AUC of dose-response viability curve (SN12C [22]) | AUC of dose-response viability curve (TK-10 [23]) | AUC of dose-response viability curve (UO-31 [24])
Cc1ccccc1-n1c(Cn2cnc3c(N)ncnc32)nc2cccc(C)c2c1=O | 7980 | > 10000 | > 10000 | > 10000 | > 10000 | > 10000 | > 10000 | > 10000 | 0.856 | 0.434 | 0.955 | 0.813 | 0.717 | 0.814 | 0.758 | 0.821 | 3.25 | 2.46 | 3.88 | 3.17 | 3.12 | 3.12 | 2.93 | 3.41
